According to PubChem BioAssay AID1918998 (Molecular Pharmacology Branch, DTP, NCI, 2023):
One block for each compound: values may come before it.

Tested on: 521955-158-R2-J5-PDC complex spheroid growth
Assay: Anticancer human tumor 521955-158-R2-J5-PDC patient-derived pancreatic carcinoma cell line growth inhibition [AhR]
Conditions: for IC50: curve of first compound; for viability, T/C: stronger effect = lower value
Procedure, shortened: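 Spheroids combined tumor cells with HUVEC endothelial cells and human MSCs as stroma. AhR antagonists were paired with standard or investigational drugs, each dosed in half-log steps down from near clinical Cmax, or from 10 microM where Cmax was unknown.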

[1] = second compound 0.1 µM, first compound 0.0316 µM
[2] = second compound 0.1 µM, first compound 0.1 µM
[3] = second compound 0.1 µM, first compound 0.316 µM
[4] = second compound 0.1 µM, first compound 1 µM
[5] = second compound 0.1 µM, first compound 3.16 µM
[6] = second compound 0.1 µM, first compound 10 µM
[7] = second compound 0.316 µM, first compound 0.0316 µM
[8] = second compound 0.316 µM, first compound 0.1 µM
[9] = second compound 0.316 µM, first compound 0.316 µM
[10] = second compound 0.316 µM, first compound 1 µM
[11] = second compound 0.316 µM, first compound 3.16 µM
[12] = second compound 0.316 µM, first compound 10 µM
[13] = second compound 1 µM, first compound 0.0316 µM
[14] = second compound 1 µM, first compound 0.1 µM
[15] = second compound 1 µM, first compound 0.316 µM
[16] = second compound 1 µM, first compound 1 µM
[17] = second compound 1 µM, first compound 3.16 µM
[18] = second compound 1 µM, first compound 10 µM
[19] = second compound 3.16 µM, first compound 0.0316 µM
[20] = second compound 3.16 µM, first compound 0.1 µM
[21] = second compound 3.16 µM, first compound 0.316 µM
[22] = second compound 3.16 µM, first compound 1 µM
[23] = second compound 3.16 µM, first compound 3.16 µM
[24] = second compound 3.16 µM, first compound 10 µM
[25] = second compound 10 µM, first compound 0.0316 µM
[26] = second compound 10 µM, first compound 0.1 µM
[27] = second compound 10 µM, first compound 0.316 µM
[28] = second compound 10 µM, first compound 1 µM
[29] = second compound 10 µM, first compound 3.16 µM
[30] = second compound 10 µM, first compound 10 µM
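For viability, T/C in this document: spheroids mix tumor cells with HUVEC endothelium and human MSC stroma; luminescence taken as viability surrogate after a week of drug exposure.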

Compound: CC(C)c1c(-c2ccccc2)nc2c(C#N)c[nH]n2c1=O + CC(CO)NC(=O)c1cc(-c2ccc(Cl)cc2)nn(-c2cnn(C)c2)c1=O
IC50 (second compound 0.1 µM): > 10 µM | IC50 (second compound 0.316 µM): > 10 µM | IC50 (second compound 1 µM): > 10 µM | IC50 (second compound 3.16 µM): > 10 µM | IC50 (second compound 10 µM): > 10 µM | viability, T/C [1]: 91% | viability, T/C [2]: 83.6% | viability, T/C [3]: 89.4% | viability, T/C [4]: 91.4% | viability, T/C [5]: 66.3% | viability, T/C [6]: 78.2% | viability, T/C [7]: 80.1% | viability, T/C [8]: 103% | viability, T/C [9]: 75.7% | viability, T/C [10]: 86.1% | viability, T/C [11]: 73.3% | viability, T/C [12]: 88.5% | viability, T/C [13]: 82.1% | viability, T/C [14]: 89.4% | viability, T/C [15]: 93.5% | viability, T/C [16]: 94.2% | viability, T/C [17]: 70.7% | viability, T/C [18]: 51.9% | viability, T/C [19]: 98.5% | viability, T/C [20]: 93.7% | viability, T/C [21]: 97% | viability, T/C [22]: 96.5% | viability, T/C [23]: 72% | viability, T/C [24]: 70% | viability, T/C [25]: 84.5% | viability, T/C [26]: 81.2% | viability, T/C [27]: 86.4% | viability, T/C [28]: 71.8% | viability, T/C [29]: 54.6% | viability, T/C [30]: 54.7%

Compound: O=C(C=Cn1cnc(-c2cc(C(F)(F)F)cc(C(F)(F)F)c2)n1)NNc1cnccn1 + CC(CO)NC(=O)c1cc(-c2ccc(Cl)cc2)nn(-c2cnn(C)c2)c1=O
IC50 (second compound 0.1 µM): 0.0816 µM | IC50 (second compound 0.316 µM): 0.0294 µM | IC50 (second compound 1 µM): 0.0233 µM | IC50 (second compound 3.16 µM): 0.0218 µM | IC50 (second compound 10 µM): 0.0125 µM | viability, T/C (second compound 0.1 µM, first compound 0.00949 µM): 59.2% | viability, T/C (second compound 0.1 µM, first compound 0.03 µM): 58.6% | viability, T/C (second compound 0.1 µM, first compound 0.0949 µM): 42.9% | viability, T/C (second compound 0.1 µM, first compound 0.3 µM): 45.7% | viability, T/C (second compound 0.1 µM, first compound 0.949 µM): 39.4% | viability, T/C (second compound 0.1 µM, first compound 3 µM): 29.1% | viability, T/C (second compound 0.316 µM, first compound 0.00949 µM): 85.6% | viability, T/C (second compound 0.316 µM, first compound 0.03 µM): 44.6% | viability, T/C (second compound 0.316 µM, first compound 0.0949 µM): 43.8% | viability, T/C (second compound 0.316 µM, first compound 0.3 µM): 38% | viability, T/C (second compound 0.316 µM, first compound 0.949 µM): 37.7% | viability, T/C (second compound 0.316 µM, first compound 3 µM): 23.9% | viability, T/C (second compound 1 µM, first compound 0.00949 µM): 62.8% | viability, T/C (second compound 1 µM, first compound 0.03 µM): 40.3% | viability, T/C (second compound 1 µM, first compound 0.0949 µM): 38.9% | viability, T/C (second compound 1 µM, first compound 0.3 µM): 38.8% | viability, T/C (second compound 1 µM, first compound 0.949 µM): 34.6% | viability, T/C (second compound 1 µM, first compound 3 µM): 21.7% | viability, T/C (second compound 3.16 µM, first compound 0.00949 µM): 58.9% | viability, T/C (second compound 3.16 µM, first compound 0.03 µM): 38.7% | viability, T/C (second compound 3.16 µM, first compound 0.0949 µM): 50.4% | viability, T/C (second compound 3.16 µM, first compound 0.3 µM): 29.4% | viability, T/C (second compound 3.16 µM, first compound 0.949 µM): 27.6% | viability, T/C (second compound 3.16 µM, first compound 3 µM): 25.6% | viability, T/C (second compound 10 µM, first compound 0.00949 µM): 52.7% | viability, T/C (second compound 10 µM, first compound 0.03 µM): 42.1% | viability, T/C (second compound 10 µM, first compound 0.0949 µM): 27.5% | viability, T/C (second compound 10 µM, first compound 0.3 µM): 26.7% | viability, T/C (second compound 10 µM, first compound 0.949 µM): 22.4% | viability, T/C (second compound 10 µM, first compound 3 µM): 17.7%

Further lines, with some results ahead:

IC50 (second compound 0.1 µM): 0.0881 µM | IC50 (second compound 0.316 µM): 0.106 µM | IC50 (second compound 1 µM): 0.0813 µM | IC50 (second compound 3.16 µM): 0.0677 µM | IC50 (second compound 10 µM): 0.0378 µM
Compound: CC1COCCN1c1cc(-c2ccnn2C)c2ccnc(-c3ccn[nH]3)c2n1 (stereo not given) + CC(CO)NC(=O)c1cc(-c2ccc(Cl)cc2)nn(-c2cnn(C)c2)c1=O
viability, T/C (second compound 0.1 µM, first compound 0.00316 µM): 91.6% | viability, T/C (second compound 0.1 µM, first compound 0.01 µM): 121% | viability, T/C [1]: 98.3% | viability, T/C [2]: 44.3% | viability, T/C [3]: 11.2% | viability, T/C [4]: 14.6% | viability, T/C (second compound 0.316 µM, first compound 0.00316 µM): 141% | viability, T/C (second compound 0.316 µM, first compound 0.01 µM): 126% | viability, T/C [7]: 110% | viability, T/C [8]: 54.5% | viability, T/C [9]: 8.67% | viability, T/C [10]: 13.1% | viability, T/C (second compound 1 µM, first compound 0.00316 µM): 93% | viability, T/C (second compound 1 µM, first compound 0.01 µM): 115% | viability, T/C [13]: 120% | viability, T/C [14]: 37% | viability, T/C [15]: 8.65% | viability, T/C [16]: 13.6% | viability, T/C (second compound 3.16 µM, first compound 0.00316 µM): 115% | viability, T/C (second compound 3.16 µM, first compound 0.01 µM): 102% | viability, T/C [19]: 94.4% | viability, T/C [20]: 27.6% | viability, T/C [21]: 8.07% | viability, T/C [22]: 12.1% | viability, T/C (second compound 10 µM, first compound 0.00316 µM): 93.5% | viability, T/C (second compound 10 µM, first compound 0.01 µM): 89.5% | viability, T/C [25]: 55.8% | viability, T/C [26]: 17.8% | viability, T/C [27]: 7.29% | viability, T/C [28]: 12.2%

IC50 (second compound 0.1 µM): 2.44 µM | IC50 (second compound 0.316 µM): 2.22 µM | IC50 (second compound 1 µM): 2.27 µM | IC50 (second compound 3.16 µM): 2.25 µM | IC50 (second compound 10 µM): 1.81 µM
Compound: CC1COCCN1c1cc(C2(S(C)(=N)=O)CC2)nc(-c2ccnc3[nH]ccc23)n1 (stereo not given) + CC(CO)NC(=O)c1cc(-c2ccc(Cl)cc2)nn(-c2cnn(C)c2)c1=O
viability, T/C [1]: 114% | viability, T/C [2]: 147% | viability, T/C [3]: 125% | viability, T/C [4]: 111% | viability, T/C [5]: 32.3% | viability, T/C [6]: 17.2% | viability, T/C [7]: 110% | viability, T/C [8]: 106% | viability, T/C [9]: 130% | viability, T/C [10]: 113% | viability, T/C [11]: 21.8% | viability, T/C [12]: 14.1% | viability, T/C [13]: 113% | viability, T/C [14]: 108% | viability, T/C [15]: 103% | viability, T/C [16]: 125% | viability, T/C [17]: 24.8% | viability, T/C [18]: 12.7% | viability, T/C [19]: 114% | viability, T/C [20]: 117% | viability, T/C [21]: 146% | viability, T/C [22]: 105% | viability, T/C [23]: 20.6% | viability, T/C [24]: 12.3% | viability, T/C [25]: 89.2% | viability, T/C [26]: 123% | viability, T/C [27]: 110% | viability, T/C [28]: 85% | viability, T/C [29]: 17.3% | viability, T/C [30]: 11.8%

IC50 (second compound 0.1 µM): > 10 µM | IC50 (second compound 0.316 µM): 3.86 µM | IC50 (second compound 1 µM): 5.97 µM | IC50 (second compound 3.16 µM): 2.97 µM | IC50 (second compound 10 µM): 1.9 µM
Compound: COc1ccc([C@@H](O)c2cc(-c3ncnc4cc(N5CCOCC5)ccc34)c(F)cc2Cl)nn1 + CC(CO)NC(=O)c1cc(-c2ccc(Cl)cc2)nn(-c2cnn(C)c2)c1=O
viability, T/C [1]: 94.8% | viability, T/C [2]: 90.2% | viability, T/C [3]: 95.7% | viability, T/C [4]: 89.7% | viability, T/C [5]: 61.2% | viability, T/C [6]: 50.9% | viability, T/C [7]: 82.4% | viability, T/C [8]: 98.9% | viability, T/C [9]: 99.9% | viability, T/C [10]: 83% | viability, T/C [11]: 52.3% | viability, T/C [12]: 41.5% | viability, T/C [13]: 114% | viability, T/C [14]: 101% | viability, T/C [15]: 96.7% | viability, T/C [16]: 79.3% | viability, T/C [17]: 61.7% | viability, T/C [18]: 40.3% | viability, T/C [19]: 104% | viability, T/C [20]: 86.2% | viability, T/C [21]: 116% | viability, T/C [22]: 73% | viability, T/C [23]: 54.6% | viability, T/C [24]: 42.7% | viability, T/C [25]: 87.7% | viability, T/C [26]: 88.9% | viability, T/C [27]: 79.3% | viability, T/C [28]: 57.9% | viability, T/C [29]: 44.8% | viability, T/C [30]: 35.5%
